Test system: 596521-263-R-J1-PDC complex spheroids, viability % of control
Assay: Anticancer human tumor 596521-263-R-J1-PDC patient-derived soft tissue sarcoma cell line growth inhibition [GQUAD]
Settings: for IC50: curve of first compound; for viability, T/C: stronger effect = lower value
Summary of the method: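 Multi-cell-type spheroids of tumor cells with HUVEC and mesenchymal stem cells, treated with drug combinations. Concentrations descend in half-log steps from near clinical Cmax, or from 10 microM where Cmax is unknown; viability read-out.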
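Note: spheroids exposed to drugs for 7 days before viability reading.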
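Throughout, for viability, T/C: 100% = DMSO vehicle control viability.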

SMILES: COc1ncnc(C2CC2)c1-c1ncc2cnn(Cc3ccc(-c4nc(C(F)(F)F)cn4C(C)C)cc3)c2n1 + Cc1[nH]c2ccc(F)cc2c1-c1nc2c3cccnc3c3ncccc3c2[nH]1
- IC50 (second compound 0.0316 µM): 1.46 µM
- IC50 (second compound 0.1 µM): 1.5 µM
- IC50 (second compound 0.316 µM): 1.19 µM
- IC50 (second compound 1 µM): 1.19 µM
- IC50 (second compound 3.16 µM): 1.2 µM
- IC50 (second compound 10 µM): 0.991 µM
- viability, T/C (second compound 0.0316 µM, first compound 0.0316 µM): 100%
- viability, T/C (second compound 0.0316 µM, first compound 0.1 µM): 88.8%
- viability, T/C (second compound 0.0316 µM, first compound 0.316 µM): 79.6%
- viability, T/C (second compound 0.0316 µM, first compound 1 µM): 56.9%
- viability, T/C (second compound 0.0316 µM, first compound 3.16 µM): 33.5%
- viability, T/C (second compound 0.0316 µM, first compound 10 µM): 2.52%
- viability, T/C (second compound 0.1 µM, first compound 0.0316 µM): 98.8%
- viability, T/C (second compound 0.1 µM, first compound 0.1 µM): 90.4%
- viability, T/C (second compound 0.1 µM, first compound 0.316 µM): 75.6%
- viability, T/C (second compound 0.1 µM, first compound 1 µM): 67%
- viability, T/C (second compound 0.1 µM, first compound 3.16 µM): 27.1%
- viability, T/C (second compound 0.1 µM, first compound 10 µM): 2.12%
- viability, T/C (second compound 0.316 µM, first compound 0.0316 µM): 85.8%
- viability, T/C (second compound 0.316 µM, first compound 0.1 µM): 95.4%
- viability, T/C (second compound 0.316 µM, first compound 0.316 µM): 80.3%
- viability, T/C (second compound 0.316 µM, first compound 1 µM): 49.7%
- viability, T/C (second compound 0.316 µM, first compound 3.16 µM): 27.8%
- viability, T/C (second compound 0.316 µM, first compound 10 µM): 1.85%
- viability, T/C (second compound 1 µM, first compound 0.0316 µM): 87.2%
- viability, T/C (second compound 1 µM, first compound 0.1 µM): 78.8%
- viability, T/C (second compound 1 µM, first compound 0.316 µM): 75%
- viability, T/C (second compound 1 µM, first compound 1 µM): 49.9%
- viability, T/C (second compound 1 µM, first compound 3.16 µM): 31.1%
- viability, T/C (second compound 1 µM, first compound 10 µM): 1.7%
- viability, T/C (second compound 3.16 µM, first compound 0.0316 µM): 84.9%
- viability, T/C (second compound 3.16 µM, first compound 0.1 µM): 95.3%
- viability, T/C (second compound 3.16 µM, first compound 0.316 µM): 68.5%
- viability, T/C (second compound 3.16 µM, first compound 1 µM): 53.9%
- viability, T/C (second compound 3.16 µM, first compound 3.16 µM): 29.4%
- viability, T/C (second compound 3.16 µM, first compound 10 µM): 2.26%
- viability, T/C (second compound 10 µM, first compound 0.0316 µM): 95.4%
- viability, T/C (second compound 10 µM, first compound 0.1 µM): 76.7%
- viability, T/C (second compound 10 µM, first compound 0.316 µM): 71.3%
- viability, T/C (second compound 10 µM, first compound 1 µM): 54.6%
- viability, T/C (second compound 10 µM, first compound 3.16 µM): 20.6%
- viability, T/C (second compound 10 µM, first compound 10 µM): 1.93%

Source: PubChem BioAssay AID2060500 (Molecular Pharmacology Branch, DTP, NCI, 2025)
